Measured values reported in patent US10695325B2, “Compounds and methods for treating an epileptic disorder” (priority 2013, dated 2020).
Structures can show the parent of a compound that is named as a salt. Where two headings read alike, the source gives them in different places.

Legend:
scn1Lab mutant zebrafish [1] = assay type: in vivo, Danio rerio (zebrafish); details: for forebrain electrographic seizure activity after the locomotion assay: 100 μM
scn1Lab mutant zebrafish [2] = assay type: in vivo, Danio rerio (zebrafish); details: for swim activity / seizure behavior, third trial: 100 μM; for inhibition of spontaneous seizure behavior, initial screen: 667 μM
wild-type larvae = test: DMSO toxicity in larvae; details: dilutions between 0.01 and 100%; n=12 fish per concentration
[3] = test system: WT zebrafish exposed to 15 mM pentylenetetrazole; test: PTZ-induced seizure behavior, locomotion assay; assay type: in vivo; details: 100 μM, n=10
mice = details: mouse, in vivo
scMET model = test: scMET model; assay type: in vivo, mice; details: for N/F (animals protected over tested): IP quantification, 0.5 h
6 Hz (32 mA) model = test: 6 Hz (32 mA) model; assay type: in vivo, mice; details: identification screen IP
Procedure: ASP469016 was tested in our initial T31 (MES/scMET/Tox) screen at 30, 100, and 300 mg/kg. The data for each condition is presented as N/F, where N equals the number of animals protected and F equals the number of animals tested. For tests of toxicity (TOX), N equals the number of animals displaying toxic effects and F equals the number of animals tested. Codes in the C column refer to comments from the technicians performing the experiment and are defined in the comments section if necessary. Any deaths are noted. As shown in the 6 Hz (32 mA) model only 1/4 animals were protected at 100 mg/kg at 30 min. In the MES-induced seizure model only 1/4 animals were protected at 100 and 300 mg/kg at 30 min. No toxicity (unable to grasp rotorod) or activity was detected at any other dose or time point tested.

[4] = test system: MES-induced seizure model; test: MES-induced seizure model; assay type: in vivo, mice; details: for ED50, MES: mice IP, 0.5 hrs
[5] = 1 mM (KD: 48 hr exposure), 5 dpf

NC(=O)N1c2ccccc2C=Cc2ccccc21 [carbamazepine]
Epileptiform event frequency (burst frequency; interictal- and ictal-like discharges) (scn1Lab mutant zebrafish [1]; zebrafish, in vivo): increased burst frequency | fish in which epileptiform activity became more frequent (scn1Lab mutant zebrafish [1]; zebrafish, in vivo): 2 of 7

[Br-].[K+] [potassium bromide]
effect on locomotor seizure behavior (scn1Lab mutant zebrafish [2]; zebrafish, in vivo): effectively inhibited seizure behavior | Epileptiform event frequency (burst frequency; interictal- and ictal-like discharges) (scn1Lab mutant zebrafish [1]; zebrafish, in vivo): reduced | fractional time spent seizing (scn1Lab mutant zebrafish [1]; zebrafish, in vivo): reduced

C=CC(N)CCC(=O)O (centres unmarked) [vigabatrin]
Epileptiform event frequency (burst frequency; interictal- and ictal-like discharges) (scn1Lab mutant zebrafish [1]; zebrafish, in vivo): increased burst frequency | fish in which epileptiform activity became more frequent (scn1Lab mutant zebrafish [1]; zebrafish, in vivo): 6 of 7

Cc1ccc(C(=O)C(C)CN2CCCCC2)cc1 (centres unmarked) [tolperisone HCl]
swim activity / seizure behavior, third trial (scn1Lab mutant zebrafish [2]): reduced swim activity | seizure-induced swim activity and mean velocity, re-test (scn1Lab mutant zebrafish [2]; zebrafish, in vivo): effective in reducing seizure-induced swim activity and mean velocity | forebrain electrographic seizure activity after the locomotion assay (scn1Lab mutant zebrafish [1]): electrographic seizure events were still observed

CCC1(C)CC(=O)NC1=O (centres unmarked) [ethosuximide]
effect on locomotor seizure behavior (scn1Lab mutant zebrafish [2]; zebrafish, in vivo): increased seizure behavior | fish in which epileptiform activity became more frequent (scn1Lab mutant zebrafish [1]; zebrafish, in vivo): 4 of 7

C[S+](C)[O-] [DMSO]
lethal DMSO dilution (wild-type larvae): > 25%

Nc1nnc(-c2cccc(Cl)c2Cl)c(N)n1 [lamotrigine]
effect on locomotor seizure behavior (scn1Lab mutant zebrafish [2]; zebrafish, in vivo): no effect

CC[C@@H](C(N)=O)N1CCCC1=O [levetiracetam]
effect on locomotor seizure behavior (scn1Lab mutant zebrafish [2]; zebrafish, in vivo): no effect

CCNC1(c2cccs2)CCCCC1=O (centres unmarked) [tiletamine]
inhibition of spontaneous seizure behavior, initial screen (scn1Lab mutant zebrafish [2]; 5 dpf, 6-12 fish): ineffective

CN1CCC(=C2c3ccccc3Sc3ccccc32)CC1 [pimethixene maleate]
convulsive behavior (H1 antihistamines) (scn1Lab mutant zebrafish [2]; zebrafish, in vivo): failed to suppress convulsive behavior

CC(C)(C)C(O)/C=C/c1ccc2c(c1)OCO2 (centres unmarked) [stiripentol]
effect on locomotor seizure behavior (scn1Lab mutant zebrafish [2]; zebrafish, in vivo): effectively inhibited seizure behavior | Epileptiform event frequency (burst frequency; interictal- and ictal-like discharges) (scn1Lab mutant zebrafish [1]; zebrafish, in vivo): reduced | fractional time spent seizing (scn1Lab mutant zebrafish [1]; zebrafish, in vivo): reduced

NCC(O)CC(=O)O (centres unmarked) [aminohydroxybutyric acid]
inhibition of spontaneous seizure behavior, initial screen (scn1Lab mutant zebrafish [2]; 5 dpf, 6-12 fish): ineffective

Clc1ccc(Cn2c(CN3CCCC3)nc3ccccc32)cc1 [clemizole]
swim activity / seizure behavior, third trial (scn1Lab mutant zebrafish [2]): effective in suppressing spontaneous seizure activity | seizure behavior in the locomotion assay (scn1Lab mutant zebrafish [2]; n=33): no significant effect | seizure-induced swim activity and mean velocity, re-test (scn1Lab mutant zebrafish [2]; zebrafish, in vivo): effective in reducing seizure-induced swim activity and mean velocity | forebrain electrographic seizure activity after the locomotion assay (scn1Lab mutant zebrafish [1]): effective in suppressing spontaneous seizure activity | burst duration (scn1Lab mutant zebrafish [1]; n=7): 154 ± 127 ms | burst frequency (scn1Lab mutant zebrafish [1]; n=7): 0.2±0.01 bursts/min | fractional time spent seizing (scn1Lab mutant zebrafish [1]; n=7): 0.03±0.02% | PTZ-induced seizure behavior [3]: effective in reducing seizure behavior

CC(=O)Nc1nnc(S(N)(=O)=O)s1 [Acetazolamide]
effect on locomotor seizure behavior (scn1Lab mutant zebrafish [2]; zebrafish, in vivo): increased seizure behavior

O=C(CCCl)NCc1ccccc1 [beclamide]
inhibition of spontaneous seizure behavior, initial screen (scn1Lab mutant zebrafish [2]): ineffective

CN1C(=O)CN=C(c2ccccc2)c2cc(Cl)ccc21 [diazepam]
effect on locomotor seizure behavior (scn1Lab mutant zebrafish [2]; [5]): effectively inhibited seizure behavior | fractional time spent seizing (scn1Lab mutant zebrafish [1]; 1 mM bath applied, 5-6 dpf, vs baseline): reduced | Epileptiform event frequency (burst frequency; interictal- and ictal-like discharges) (scn1Lab mutant zebrafish [1]; 1 mM bath applied, agar-embedded mutants 5-6 dpf, vs baseline, 7 fish per drug): reduced

CC(C)CCCC(C)NC(C)C (centres unmarked) [iproheptine]
convulsive behavior (H1 antihistamines) (scn1Lab mutant zebrafish [2]; locomotor seizure assay, 5 dpf): failed to suppress convulsive behavior

CC(=O)[C@H]1CC[C@H]2[C@@H]3CC[C@H]4C[C@](C)(O)CC[C@]4(C)[C@H]3CC[C@]12C [ganaxolone]
effect on locomotor seizure behavior (scn1Lab mutant zebrafish [2]; [5]): effective

Clc1ccc(Cn2c(CN3CCCC3)nc3ccccc32)cc1 [ASP469016]
activity or toxicity (unable to grasp rotorod) (mice): No activity or toxicity | N/F (animals toxic over tested) (mice; 400 mg/kg): 0/8 | N/F (animals toxic over tested) (mice; 500 mg/kg): 0/4 | ED50, TOX (mice; ip): >500 mg/kg | N/F (animals toxic over tested) (mice; ip, 30 mg/kg): 0/8 | N/F (animals toxic over tested) (mice; ip, 100 mg/kg): 0/8 | N/F (animals toxic over tested) (mice; ip, 300 mg/kg): 0/8 | N/F (animals toxic over tested) (mice; ip, 500 mg/kg): 0/4 | N/F (animals protected over tested) (scMET model; 200 mg/kg): 0/8 | N/F (animals protected over tested) (scMET model; 250 mg/kg): 0/4 | ED50, SCMET (scMET model; mice IP, 0.5 hrs): >250.0 mg/kg | activity in the scMET model (scMET model; quantitative testing): No activity | N/F (animals protected over tested) (6 Hz (32 mA) model; 30 mg/kg, 0.5 h): 0/4 | N/F (animals protected over tested) (6 Hz (32 mA) model; 30 mg/kg, 2.0 h): 0/4 | N/F (animals protected over tested) (6 Hz (32 mA) model; 100 mg/kg, 0.5 h): 1/4 | N/F (animals protected over tested) (6 Hz (32 mA) model; 100 mg/kg, 2.0 h): 0/4 | N/F (animals protected over tested) (6 Hz (32 mA) model; 300 mg/kg, 0.5 h): 0/4 | N/F (animals protected over tested) (6 Hz (32 mA) model; 300 mg/kg, 2.0 h): 0/4 | activity during determination of the TPE in the MES model ([4]; 300 mg/kg starting dose): no activity | activity in the qualitative MES screen ([4]; 100 and 300 mg/kg doses): some activity | N/F (animals protected over tested) ([4]; IP quantification, 350 mg/kg, 0.5 h): 0/8 | N/F (animals protected over tested) ([4]; IP quantification, 400 mg/kg, 0.5 h): 7/8 | N/F (animals protected over tested) ([4]; IP quantification, 500 mg/kg, 0.5 h): 4/4 | N/F (animals protected over tested) ([4]; identification screen IP, 30 mg/kg, 0.5 h): 0/4 | N/F (animals protected over tested) ([4]; identification screen IP, 30 mg/kg, 2.0 h): 0/4 | N/F (animals protected over tested) ([4]; identification screen IP, 100 mg/kg, 0.5 h): 1/4 | N/F (animals protected over tested) ([4]; identification screen IP, 100 mg/kg, 2.0 h): 0/4 | N/F (animals protected over tested) ([4]; identification screen IP, 300 mg/kg, 0.5 h): 1/4 | N/F (animals protected over tested) ([4]; identification screen IP, 300 mg/kg, 2.0 h): 0/4 | ED50, MES [4]: < 400 mg/kg | ED50, MES ([4]; listed as 469016): <400.0 mg/kg | N/F (animals protected over tested) ([4]; time to peak effect, 300 mg/kg, 0.25 h): 0/4 | N/F (animals protected over tested) ([4]; time to peak effect, 300 mg/kg, 0.5 h): 0/4 | N/F (animals protected over tested) ([4]; time to peak effect, 300 mg/kg, 1.0 h): 0/4 | N/F (animals protected over tested) ([4]; time to peak effect, 300 mg/kg, 2.0 h): 0/4 | N/F (animals protected over tested) ([4]; time to peak effect, 300 mg/kg, 4.0 h): 0/4 | N/F (animals protected over tested) ([4]; time to peak effect, 500 mg/kg, 0.25 h): 2/4 | N/F (animals protected over tested) ([4]; time to peak effect, 500 mg/kg, 1.0 h): 0/4 | N/F (animals protected over tested) ([4]; time to peak effect, 500 mg/kg, 2.0 h): 0/4 | N/F (animals protected over tested) ([4]; time to peak effect, 500 mg/kg, 4.0 h): 0/4

C#CCN(C)CCCOc1ccc(Cl)cc1Cl [clorgiline HCl]
swim activity / seizure behavior, third trial (scn1Lab mutant zebrafish [2]): reduced swim activity | seizure-induced swim activity and mean velocity, re-test (scn1Lab mutant zebrafish [2]; zebrafish, in vivo): effective in reducing seizure-induced swim activity and mean velocity | forebrain electrographic seizure activity after the locomotion assay (scn1Lab mutant zebrafish [1]): electrographic seizure events were still observed

CN1CCc2c(c3ccccc3n2Cc2ccccc2)C1.CN1CCc2c(c3ccccc3n2Cc2ccccc2)C1.O=S(=O)(O)c1cccc2c(S(=O)(=O)O)cccc12 [mebhydrolin napthalenesulfonate]
convulsive behavior (H1 antihistamines) (scn1Lab mutant zebrafish [2]; zebrafish, in vivo): failed to suppress convulsive behavior
